From paper PMC5715595 (British Journal of Pharmacology, 2017)
Like-named read-outs stand apart in the source and are kept apart here.

Key:
[1] = target: T1, KV7.1/mink (Homo sapiens, UniProt P51787); experiment: Whole-cell patch clamp on KV7.1/mink (IKs); format: cell-based; conditions: read-out: Reference compound % inhibition
T1 construct: expressed in transfected cells
Description: (§1) and CiPA Initiative Studies
(§2) =============================================================
(§3) In vitro studies on other ion channels […]
(§4) through NaV1.5, KV4.3, KV7.1/mink, Kir2.1, KV1.5, CaV1.2 and CaV3.2 channels.
(§5) 35-mm dish culture in the conditions mentioned in standard cell culture conditions. Experiments were performed with a cell density enabling isolated cells for patch clamping. Cells were continuously superfused with extracellular medium (1-2 mL∙minute-1) at room temperature.
(§6) D-glucose 10, HEPES 10 and the final pH adjusted to 7.4±0.02 with NaOH for recording NaV1.5, KV4.3, KV7.1/mink, Kir2.1, KV1.5 and CaV3.2 currents. It was (in mM): NaCl 110, KCl 4, BaCl2 20, MgCl2 1, D-glucose 20, HEPES 10 and the final pH adjusted to 7.4 ± 0.02 with NaOH for recording the CaV1.2 current. Compositions of the intracellular solution to fill the pipette are […]
(§7) Composition of intracellular solutions used to fill pipette to record currents through NaV1.5, KV4.3, KV7.1/mink, Kir2.1, KV1.5, CaV1.2 and CaV3.2 channels
(§8) Solution to fill the pipette (mM)
(§9) Creatine-phospho kinase 50 U∙mL-1
(§10) After formation of a Gigaohm seal between the patch electrodes and individual cells (pipette resistance range: 2.0 MΩ - 7.0 MΩ; seal resistance range: > 1 GΩ) the cell membrane across the pipette tip was ruptured to assure electrical access to the cell interior (whole-cell patch-configuration). In case the quality of the seal was poor, the process of seal formation was repeated with a different cell and a new pipette. As soon as a stable seal was established outward tail currents were measured upon pulses described in the Table S2. If current density was judged to be too low for measurement, another cell was recorded. […]
(§11) voltage stimulation protocol indicated in the next table continuously run until the steady-state level of block was reached.
(§12) Stimulation conditions used to record currents through NaV1.5, KV4.3, KV7.1/mink, Kir2.1, KV1.5, CaV1.2 and CaV3.2 channels
(§13) Ion channel Holding potential Pulse / duration Frequency Reference compound […]
(§14) (resting / fast / slow sweeps at one (10 mM) inactivated concentration)

[2] = in vivo; cited from earlier work
[3] = test system: fast INa; conditions: read-out: IC50 for fast INa; ref Gao et al., 2013; cited from earlier work
[4] = test system: canine Purkinje fibres; parameters: method as in Fazekas et al., 1998; conditions: mexiletine (10 mM) added after erythromycin, ref Fazekas et al., 1998; cited from earlier work
[5] = test system: late INa; conditions: read-out: IC50 for late INa; ref Gao et al., 2013; cited from earlier work
[6] = test system: hERG channel; conditions: cited from earlier work
[7] = test system: late sodium current; parameters: method as in Johannesen et al., 2016; conditions: at the concentrations that caused approximately 20 ms shortening of QTc; ref Johannesen et al., 2016; cited from earlier work
[8] = test system: methoxamine‐sensitized rabbits; experiment: in vivo; parameters: species or system rabbit; conditions: clofilium 20.5 μg·kg^−1·min^−1
Description: All the other experimental groups were 100% female.
The anaesthetized methoxamine‐sensitized rabbit model of TdP is frequently used to study torsadogenic potential of drugs (Carlsson et al., 1990). Briefly, female animals were pre‐sensitized with i.v. infusion of methoxamine, an α1‐adrenoceptor agonist, delivered at 15 μg·kg^−1·min^−1 (6 mL·h^−1) over 70 min.

[9] = test system: anaesthetized rabbits
Description: All the other experimental groups were 100% female. Animals were anaesthetized with sodium pentobarbital (45–60 mg·kg^−1 i.v.), maintained on a heated pad and mechanically ventilated with room air. […] A fluid‐filled catheter was inserted into the carotid artery to measure systemic arterial blood pressure and for blood sampling. A venous catheter was implanted into the jugular vein for infusion of drugs. Standard surface ECG leads I, II and III were monitored continuously to measure ECG intervals and the occurrence of ventricular tachyarrhythmia. Measurements of arterial blood pressures were calculated over 30 s duration at baseline and every 5 min. […] Then, for all determinations, the means of 10–30 consecutive sinus beats were automatically calculated at each time point (i.e. at the end of the stabilization period and then every 5 until 60 min after starting drug infusion) or until the occurrence of premature ventricular beats. Parameters recorded were systolic, diastolic and mean arterial blood pressure (mmHg), heart rate (beats·min^‐1 calculated from RR interval) as well as PR, QRS and QT/QTU intervals (ms), amplitudes of T‐wave and U‐wave (mV) and rhythm disturbances retrieved from ECG signals. […] Arrhythmia were scored according to the following scale: 0 being no arrhythmia, 1 being premature beats, 2 being auriculo‐ventricular blocks, 3 being ventricular tachycardia and 4 being TdP; and scores correspond to the average of maximal life‐threatening arrhythmias recorded during the experiment. […] Haemodynamic and ECG recordings were monitored continuously over 60 min following the start of infusion.

[10] = target: T2, KV4.3 (Homo sapiens, UniProt Q9UK17); experiment: Whole-cell patch clamp on KV4.3 (Ito); format: cell-based; conditions: read-out: Reference compound % inhibition
T2 construct: expressed in transfected cells
T2 sequence (Q9UK17 1-655): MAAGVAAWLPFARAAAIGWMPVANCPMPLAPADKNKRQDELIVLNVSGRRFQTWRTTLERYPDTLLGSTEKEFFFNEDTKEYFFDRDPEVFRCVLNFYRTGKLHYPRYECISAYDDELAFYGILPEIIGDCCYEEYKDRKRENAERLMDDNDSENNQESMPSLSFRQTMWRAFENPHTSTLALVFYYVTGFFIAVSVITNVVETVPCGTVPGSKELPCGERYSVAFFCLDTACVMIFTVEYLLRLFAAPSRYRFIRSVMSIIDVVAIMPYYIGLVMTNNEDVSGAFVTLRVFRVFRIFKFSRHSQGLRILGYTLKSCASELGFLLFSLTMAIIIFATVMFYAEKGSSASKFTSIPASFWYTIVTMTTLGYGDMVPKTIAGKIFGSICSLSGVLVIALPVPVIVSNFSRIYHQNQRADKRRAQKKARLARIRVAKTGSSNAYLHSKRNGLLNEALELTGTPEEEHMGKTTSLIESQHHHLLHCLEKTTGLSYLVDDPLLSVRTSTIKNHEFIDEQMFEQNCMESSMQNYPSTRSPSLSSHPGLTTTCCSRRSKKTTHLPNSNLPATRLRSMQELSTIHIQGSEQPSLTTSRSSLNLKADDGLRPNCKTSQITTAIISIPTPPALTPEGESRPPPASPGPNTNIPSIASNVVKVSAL
Description: as §1, §2, §3, §4, §5, §6, §7, §8, §9, §10, §11, §12, §13, §14

[11] = test system: hERG channel; conditions: cited from earlier work; remark: listed apart in the source
[12] = test system: late INa current; parameters: method as in Obejero‐Paz et al., 2015; conditions: ref Obejero‐Paz et al., 2015; cited from earlier work
[13] = test system: late INa; conditions: at clinical Cmax; ref Vicente et al., 2015; cited from earlier work
[14] = test system: hERG; parameters: method as in Jonker et al., 2005; conditions: simulation study; 95% CI: 12–32 ms; ref Jonker et al., 2005; cited from earlier work
[15] = test system: rabbit Purkinje fibres; experiment: Dofetilide-induced early after-depolarizations and triggered activity in rabbit Purkinje fibres; format: cell-based
Description: Following a lethal dose of pentobarbital, the hearts of male New Zealand rabbits were immediately excised and immersed in a modified Tyrode solution maintained at room temperature and previously saturated with O2/CO2 (95%/5%). A piece of ventricle containing free running Purkinje fibres was fixed to the silastic bottom of an organ bath perfused with the same solution maintained at 37°C for 30 min. The preparation was then superfused with the modified Tyrode solution and stimulated for 30 min at 2 Hz and then at 1 Hz (2 ms stimulus at twice threshold). […] After a stabilization period of at least 1 h, action potentials typical for Purkinje fibres were recorded. Action potential reproducibility and stability were confirmed during a further 20 min stabilization period. […] Each was applied for 20 min to enable steady state to be reached. In addition, the emergence of early after‐depolarizations (EADs), favoured by calcium loading during the late phase 2 of the prolonged action potential, is recognized as a better marker of pro‐arrhythmic potential than APD prolongation alone.

[16] = target: T3, Kir2.1 (Homo sapiens, UniProt P63252); experiment: Whole-cell patch clamp on Kir2.1 (IK1); format: cell-based; conditions: Kir2.1 IK1; 10 μM
T3 construct: expressed in transfected cells
T3 sequence (P63252 1-427): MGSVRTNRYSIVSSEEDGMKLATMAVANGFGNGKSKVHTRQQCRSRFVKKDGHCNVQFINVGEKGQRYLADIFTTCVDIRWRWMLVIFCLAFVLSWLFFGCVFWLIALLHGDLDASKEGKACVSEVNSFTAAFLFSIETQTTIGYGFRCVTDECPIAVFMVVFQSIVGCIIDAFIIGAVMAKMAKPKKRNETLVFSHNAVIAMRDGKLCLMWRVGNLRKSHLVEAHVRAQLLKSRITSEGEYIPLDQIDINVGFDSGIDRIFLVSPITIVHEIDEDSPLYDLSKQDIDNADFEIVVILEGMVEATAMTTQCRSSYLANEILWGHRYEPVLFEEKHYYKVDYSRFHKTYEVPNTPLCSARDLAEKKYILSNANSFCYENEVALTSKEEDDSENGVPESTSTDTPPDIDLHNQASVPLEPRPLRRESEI
Description: as §1, §2, §3, §4, §5, §6, §7, §8, §9, §10, §11, §12, §13, §14

[17] = target: T4, KV1.5 (Homo sapiens, UniProt P22460); experiment: Whole-cell patch clamp on KV1.5 (IKur); format: cell-based; conditions: read-out: Reference compound % inhibition
T4 construct: expressed in transfected cells
Description: as §1, §2, §3, §4, §5, §6, §7, §8, §9, §10, §11, §12, §13, §14

[18] = target: T5, CaV3.2 (Homo sapiens, UniProt O95180); experiment: Whole-cell patch clamp on CaV3.2 (ICaT); format: cell-based; conditions: read-out: Reference compound % inhibition
T5 construct: expressed in transfected cells
Description: as §1, §2, §3, §4, §5, §6, §7, §8, §9, §10, §11, §12, §13, §14

T5 sequence (O95180 whole entry): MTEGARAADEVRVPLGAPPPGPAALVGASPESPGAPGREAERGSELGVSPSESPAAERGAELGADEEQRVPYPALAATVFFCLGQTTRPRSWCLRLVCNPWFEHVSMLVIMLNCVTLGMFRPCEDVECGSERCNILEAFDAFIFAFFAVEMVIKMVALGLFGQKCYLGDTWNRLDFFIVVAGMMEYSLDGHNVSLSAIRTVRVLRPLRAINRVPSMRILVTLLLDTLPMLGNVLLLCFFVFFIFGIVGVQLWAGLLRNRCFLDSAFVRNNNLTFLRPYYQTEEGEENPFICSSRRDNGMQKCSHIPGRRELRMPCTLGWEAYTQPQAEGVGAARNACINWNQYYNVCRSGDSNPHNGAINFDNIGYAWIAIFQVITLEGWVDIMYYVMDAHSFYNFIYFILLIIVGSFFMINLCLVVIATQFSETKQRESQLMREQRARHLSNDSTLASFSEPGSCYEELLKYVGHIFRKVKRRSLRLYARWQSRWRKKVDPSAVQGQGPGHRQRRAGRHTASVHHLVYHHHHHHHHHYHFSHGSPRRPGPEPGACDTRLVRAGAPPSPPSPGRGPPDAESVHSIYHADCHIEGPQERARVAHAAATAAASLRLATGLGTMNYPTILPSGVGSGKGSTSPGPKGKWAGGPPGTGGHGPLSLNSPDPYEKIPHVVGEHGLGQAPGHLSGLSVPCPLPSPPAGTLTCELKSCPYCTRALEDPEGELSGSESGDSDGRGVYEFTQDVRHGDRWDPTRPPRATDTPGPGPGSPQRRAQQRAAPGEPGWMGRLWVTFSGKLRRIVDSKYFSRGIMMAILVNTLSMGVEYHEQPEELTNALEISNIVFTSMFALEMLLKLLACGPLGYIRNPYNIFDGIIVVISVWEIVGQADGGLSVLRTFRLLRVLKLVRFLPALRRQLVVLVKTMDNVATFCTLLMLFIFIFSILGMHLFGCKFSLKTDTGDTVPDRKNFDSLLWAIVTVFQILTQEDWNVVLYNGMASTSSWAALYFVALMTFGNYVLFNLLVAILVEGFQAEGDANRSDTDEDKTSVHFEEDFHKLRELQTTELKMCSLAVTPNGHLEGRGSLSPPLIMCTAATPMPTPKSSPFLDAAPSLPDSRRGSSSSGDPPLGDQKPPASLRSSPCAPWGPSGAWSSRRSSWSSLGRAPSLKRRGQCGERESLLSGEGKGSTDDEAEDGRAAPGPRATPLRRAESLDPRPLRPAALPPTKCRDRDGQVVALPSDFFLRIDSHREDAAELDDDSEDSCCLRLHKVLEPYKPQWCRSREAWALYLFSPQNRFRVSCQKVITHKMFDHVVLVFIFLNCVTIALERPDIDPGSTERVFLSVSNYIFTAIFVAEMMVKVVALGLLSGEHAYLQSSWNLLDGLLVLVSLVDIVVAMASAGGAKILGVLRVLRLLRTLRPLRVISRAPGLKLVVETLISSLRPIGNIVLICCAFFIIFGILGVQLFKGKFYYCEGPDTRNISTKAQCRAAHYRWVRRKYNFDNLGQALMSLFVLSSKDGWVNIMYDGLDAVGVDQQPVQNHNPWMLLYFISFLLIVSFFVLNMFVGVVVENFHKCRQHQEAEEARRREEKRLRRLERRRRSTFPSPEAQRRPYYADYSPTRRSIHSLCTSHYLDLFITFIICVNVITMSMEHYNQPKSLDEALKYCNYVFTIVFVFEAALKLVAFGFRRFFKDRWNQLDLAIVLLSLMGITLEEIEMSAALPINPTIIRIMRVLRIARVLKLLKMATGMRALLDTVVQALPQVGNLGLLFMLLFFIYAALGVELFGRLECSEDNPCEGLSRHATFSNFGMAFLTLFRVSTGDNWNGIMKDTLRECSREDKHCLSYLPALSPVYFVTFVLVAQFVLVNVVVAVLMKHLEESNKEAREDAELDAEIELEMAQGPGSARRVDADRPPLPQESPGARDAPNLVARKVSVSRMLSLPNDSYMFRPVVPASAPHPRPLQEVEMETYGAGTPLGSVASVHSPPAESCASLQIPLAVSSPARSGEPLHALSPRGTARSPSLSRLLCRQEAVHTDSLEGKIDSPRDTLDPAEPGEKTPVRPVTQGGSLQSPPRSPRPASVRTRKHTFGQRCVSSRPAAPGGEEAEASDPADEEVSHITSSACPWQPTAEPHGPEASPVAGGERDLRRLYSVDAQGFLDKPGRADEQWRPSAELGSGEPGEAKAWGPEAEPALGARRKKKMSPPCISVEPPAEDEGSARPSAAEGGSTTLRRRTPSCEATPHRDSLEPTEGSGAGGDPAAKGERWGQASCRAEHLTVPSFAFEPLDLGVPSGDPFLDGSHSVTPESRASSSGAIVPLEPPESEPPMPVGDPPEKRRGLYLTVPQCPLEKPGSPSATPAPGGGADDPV
T4 sequence (P22460 whole entry): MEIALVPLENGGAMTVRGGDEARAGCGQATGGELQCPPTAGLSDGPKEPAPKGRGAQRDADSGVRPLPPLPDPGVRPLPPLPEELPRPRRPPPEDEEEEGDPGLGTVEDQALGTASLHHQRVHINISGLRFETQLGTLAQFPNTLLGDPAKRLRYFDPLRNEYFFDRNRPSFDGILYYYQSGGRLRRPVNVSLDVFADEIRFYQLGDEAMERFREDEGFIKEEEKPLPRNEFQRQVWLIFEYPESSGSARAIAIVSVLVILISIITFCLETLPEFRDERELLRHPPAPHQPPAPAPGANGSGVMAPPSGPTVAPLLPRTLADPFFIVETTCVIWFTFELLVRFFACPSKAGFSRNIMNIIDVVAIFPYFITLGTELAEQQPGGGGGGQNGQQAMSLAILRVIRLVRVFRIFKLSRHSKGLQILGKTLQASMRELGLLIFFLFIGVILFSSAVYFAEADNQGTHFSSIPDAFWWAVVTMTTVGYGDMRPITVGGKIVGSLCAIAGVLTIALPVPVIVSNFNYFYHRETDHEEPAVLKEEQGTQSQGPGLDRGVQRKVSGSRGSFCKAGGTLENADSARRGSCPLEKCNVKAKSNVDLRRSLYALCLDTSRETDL

Q: For `OC(c1cc(C(F)(F)F)nc2c(C(F)(F)F)cccc12)C1CCCCN1` (centres unmarked) [Mefloquine, reference compound], which inhibition at 10 µM [1] is on record?
A: 61%

Q: Which therapeutic concentrations [2] does the source give for `Cc1cccc(C)c1OCC(C)N` (centres unmarked) [mexiletine] here?
A: 3.4 to 9.5 µM

Q: What about the IC50 [3] of the same compound?
A: 34.6 ± 2.9 µM

Q: What about the “disappearance of erythromycin-induced EADs (preparations)” value [4] of the same compound?
A: 7/9

Q: What about the IC50 [5] of the same compound?
A: 17.6 ± 1.9 µM

Q: And the IC50 [6]?
A: 3.7 ± 0.7 µM

Q: And the “block of late sodium current” value [7]?
A: about 20%

Q: What does the source list for `CCCCCCC[N+](CC)(CC)CCCCc1ccc(Cl)cc1` [clofilium, reference compound]?
A: increase in UTA ratio [8]: 90%; QTc interval (ms) (mean ± SEM) ([9]; both, rabbit, in vivo): 152 ± 2 ms; QTc interval (ms) (mean ± SEM) ([9]; both, rabbit, in vivo, 20 min): 157 ± 3 ms; QTc interval (ms) (mean ± SEM) ([9]; both, rabbit, in vivo, 30 min): 168 ± 5 ms; QTc interval (ms) (mean ± SEM) ([9]; both, rabbit, in vivo, 40 min): 172 ± 8 ms; prolongation of QTc interval vs. baseline ([9]; both, rabbit, in vivo, iv, 60 min): +13 ± 5%; TdP occurrence ([9]; clofilium up to 1 mg·kg^−1, n = 3/4): 75%; ventricular tachycardia incidence ([9]; clofilium up to 1 mg·kg^−1, n = 4/4): 100%

Q: For `CN(C)[C@@H](CCOc1cccc2ccccc12)c1ccccc1` [Dapoxetine, reference compound], which inhibition at 30 µM [10] is on record?
A: 74%

Q: Which IC50 [11] does the source give for `Fc1ccc(C(OCCN2CCN(CCCc3ccccc3)CC2)c2ccc(F)cc2)cc1` [vanoxerine] here?
A: […]

Q: What about the IC50 [12] of the same compound?
A: 0.0852 µM

Q: Which “block of late INa” value [13] does the source give for `COc1ccccc1OCC(O)CN1CCN(CC(=O)Nc2c(C)cccc2C)CC1` (centres unmarked) [ranolazine] here?
A: 21%

Q: Which results are given for `CN(CCOc1ccc(NS(C)(=O)=O)cc1)CCc1ccc(NS(C)(=O)=O)cc1` [dofetilide, reference compound]?
A: QT prolongation corresponding to a 10% hERG blockade [14]: 20 ms; induction of EADs or triggered activity ([15]; 0.1 μM): all 10 preparations; APD90 ([15]; dofetilide 0.1 μM for 35 min, 0.25 Hz, trace of Figure 3B): 593 ms

Q: For `COc1ccc(CNCc2cccc3ccccc23)cc1` [ML 133, reference compound], which “Reference compound % inhibition” value [16] is on record?
A: ML 133 (10 μM): 96%

Q: For `CCN(CC)CC(=O)Nc1c(C)cccc1C` [Lidocaine], which “block of late sodium current” value [7] is on record?
A: about 20%

Q: For `CC(C)(C)c1ccc(C(O)CCCN2CCC(C(O)(c3ccccc3)c3ccccc3)CC2)cc1` (centres unmarked) [Terfenadine, reference compound], which inhibition at 10 µM [17] is on record?
A: 81%

Q: With `COCC(=O)O[C@]1(CCN(C)CCCc2nc3ccccc3[nH]2)CCc2cc(F)ccc2[C@@H]1C(C)C` [Mibefradil, reference compound] as the compound, how does the inhibition at 1 µM [18] read?
A: 83%
